The source made the active and inactive calls. The calls are words filed in the database; no cut-off is given here.
Tests used:
[1] = Selectivity index, ratio of IC50 for cytotoxicity against human HepG2 cells to IC50 for antiplasmodial activity against chloroquine-sensitive asexual blood stage Plasmodium falciparum 3D7; format: toxicity, cell-based; details: read-out: Ratio IC50
Plasmodium falciparum [2] = experiment: Antiplasmodial activity against chloroquine-sensitive asexual blood stage Plasmodium falciparum 3D7 assessed as inhibition of parasite growth incubated for […] by HRP2-ELISA; format: functional, organism-based
Plasmodium falciparum [3] = experiment: Antiplasmodial activity against multidrug resistant asexual blood stage Plasmodium falciparum Dd2 assessed as inhibition of parasite growth incubated for […] by HRP2-ELISA; format: functional, organism-based
[4] = Cytotoxicity against human HepG2 cells assessed as inhibition of cell growth incubated for 24 hrs by neutral red dye based analysis; format: toxicity
[5] = Cytotoxicity against HEK293 cells assessed as inhibition of cell growth incubated for 24 hrs by neutral red dye based analysis; format: toxicity; details: human
[6] = Cytotoxicity against human HeLa cells assessed as inhibition of cell growth incubated for 24 hrs by neutral red dye based analysis; format: toxicity
Plasmodium berghei [7] = experiment: Antimalarial activity against Plasmodium berghei infected in mouse assessed as reduction in parasitemia in blood at 50 mg/kg, po administered for 4 times starting from 4 to 72 hrs and measured after 96 hrs post infection (reference value: 0%); format: functional; set-up: scale not given: the % may be the effect or the level left
[8] = Selectivity index, ratio of IC50 for cytotoxicity against HEK293 cells to IC50 for antiplasmodial activity against chloroquine-sensitive asexual blood stage Plasmodium falciparum 3D7; format: toxicity, cell-based; details: human, read-out: Ratio IC50
[9] = Selectivity index, ratio of IC50 for cytotoxicity against human HeLa cells to IC50 for antiplasmodial activity against chloroquine-sensitive asexual blood stage Plasmodium falciparum 3D7; format: toxicity, cell-based; details: read-out: Ratio IC50
Plasmodium falciparum [10] = experiment: Antiplasmodial activity against multidrug resistant asexual blood stage Plasmodium falciparum Dd2-B2 assessed as inhibition of parasite growth incubated for 72 hrs by SYBR green-based assay; format: functional, organism-based; details: Dd2-B2, 72 h
Plasmodium berghei [11] = experiment: Antimalarial activity against Plasmodium berghei infected in mouse assessed as reduction in parasitemia in blood at 30 mg/kg, po administered for 4 times starting from 4 to 72 hrs and measured after 96 hrs post infection (reference value: 0%); format: functional; set-up: scale not given: the % may be the effect or the level left
Plasmodium falciparum [12] = experiment: Antiplasmodial activity against hyper mutating Plasmodium falciparum Dd2 harboring proofreading-deficient DNA polymerase delta assessed as inhibition of parasite growth incubated for 72 hrs by SYBR green-based assay; format: functional, organism-based; details: Dd2, 72 h
Plasmodium berghei [13] = experiment: Antimalarial activity against Plasmodium berghei infected in mouse assessed as mean survival days at 50 mg/kg, po administered for 4 times starting from 4 to 72 hrs and monitered for 30 days (reference value: 4 days); format: functional; details: time 30 day
Plasmodium berghei [14] = experiment: Antimalarial activity against Plasmodium berghei infected in mouse assessed as reduction in parasitemia in blood at 10 mg/kg, po administered for 4 times starting from 4 to 72 hrs and measured after 96 hrs post infection (reference value: 0%); format: functional; set-up: scale not given: the % may be the effect or the level left
Plasmodium berghei [15] = experiment: Antimalarial activity against Plasmodium berghei infected in mouse assessed as mean survival days at 30 mg/kg, po administered for 4 times starting from 4 to 72 hrs and monitered for 30 days (reference value: 4 days); format: functional; details: time 30 day
Plasmodium falciparum [16] = experiment: Inhibition of hemozoin formation in sorbitol-synchronized early ring stage plasmodium falciparum NF54 trophozoites assessed as reduction in hemozoin level at 1 to 2.5 times IC50 incubated for 28 hrs by flow cytometry analysis; format: functional
Plasmodium falciparum [17] = experiment: Inhibition of hemozoin formation in sorbitol-synchronized early ring stage plasmodium falciparum NF54 trophozoites assessed as increase in free heme level at 1 to 2.5 times IC50 incubated for 28 hrs by flow cytometry analysis; format: functional

Compound	selectivity ratio [1]	IC50 (Plasmodium falciparum [2]) [µM]	IC50 (Plasmodium falciparum [3]) [µM]	IC50 at 24 h [4] [µM]	further results
COc1ccc(CC/N=C(\N)CC(O)c2cc3ccccc3c3ccccc23)cc1 (centres undefined)	129	0.07	0.7	9	–
CC(C)(C)c1ccc(C(O)C/C(N)=N/c2ccc(F)cc2)cc1 (centres undefined)	38	1.5	0.94	57.5	–
N=C(CC(O)c1cc2ccccc2c2ccccc12)NCCc1ccc(F)cc1 (centres undefined)	16	0.33	1.1	5	–
CC(C)(C)c1cc(C(O)C/C(N)=N/c2ccc(F)cc2)cc(C(C)(C)C)c1 (centres undefined)	–	0.33	0.35	–	–
N/C(CC(O)c1ccnc2ccccc12)=N\c1ccc(F)cc1 (centres undefined)	> 200	3.4	5.6	> 200	–
CC(C)(C)c1ccc(/N=C(\N)CC(O)c2ccc(C(C)(C)C)cc2)cc1 (centres undefined)	236	0.05	0.05	11.8	–
N/C(CC(O)c1cc2c(Cl)cc(Cl)cc2c2cc(C(F)(F)F)ccc12)=N\N1CCCCC1 (centres undefined)	1190	–	–	8.3	–
N/C(CC(O)c1cc2c(Cl)cc(Cl)cc2c2cc(C(F)(F)F)ccc12)=N\OCc1ccc(F)cc1 (centres undefined)	122	–	–	34.1	–
Cl.N/C(CC(O)c1c2ccccc2cc2ccccc12)=N\c1ccc(F)cc1 (centres undefined)	1500	0.005	0.009	7.5	IC50 at 24 h [5]: 78.3 µM; IC50 at 24 h [6]: 127 µM; Activity (Plasmodium berghei [7]): 40%; selectivity ratio [8]: 15700; selectivity ratio [9]: 25400
N=C(CC(O)c1cc2ccccc2c2ccccc12)NCc1ccccc1 (centres undefined)	27	0.48	1.5	13	–
N/C(CC(O)c1cc2ccccc2c2ccccc12)=N\c1ccc(F)cc1 (centres undefined)	344	0.027	0.04	9.3	–
N/C(CC(O)c1cc2c(F)cc(F)cc2c2cc(C(F)(F)F)ccc12)=N\N=C\c1ccc(F)cc1 (centres undefined)	–	–	–	–	IC50 (Plasmodium falciparum [10]): 0.0244 µM; Activity (Plasmodium berghei [11]): 99.4%; IC50 (Plasmodium falciparum [12]): 0.0268 µM; MSD (Plasmodium berghei [13]): 22 days; Activity (Plasmodium berghei [7]): 99.9%; Activity (Plasmodium berghei [14]): 99.5%; MSD (Plasmodium berghei [15]): 25 days
N=C(CC(O)c1cc2c(Cl)cc(Cl)cc2c2cc(C(F)(F)F)ccc12)NCCc1ccc(F)cc1 (centres undefined)	21	0.35	0.23	7.3	–
N=C(CC(O)c1cc2ccccc2c2ccccc12)NCCc1ccccc1 (centres undefined)	8	0.72	10	5.7	–
COc1ccc2nccc(C(O)C/C(N)=N/c3ccc(F)cc3)c2c1 (centres undefined)	86	2.1	5.1	180	–
COc1ccc(/N=C(\N)CC(O)c2ccc(C(C)(C)C)cc2)cc1 (centres undefined)	17	3.4	2.4	56.2	–
CCN(CC)Cc1cc(/N=C(\N)CC(O)c2cc3ccccc3c3ccccc23)ccc1O (centres undefined)	304	0.05	0.64	15.2	–
N/C(CC(O)c1cc2c(F)cc(F)cc2c2cc(C(F)(F)F)ccc12)=N\CCc1ccc(F)cc1 (centres undefined)	–	0.24	0.12	–	–
CCCCN(CCCC)CC(O)c1cc(Cl)cc2c1-c1ccc(Cl)cc1/C2=C/c1ccc(Cl)cc1 (centres undefined) [LUMEFANTRINE]	20	0.006	0.002	> 20	Activity (Plasmodium berghei [11]): 99.8%; MSD (Plasmodium berghei [15]): >30 days
C[C@H]1[C@H](OC(=O)CCC(=O)O)O[C@@H]2O[C@@]3(C)CC[C@H]4[C@H](C)CC[C@@H]1[C@@]24OO3 [ARTESUNATE]	–	–	–	–	Activity (Plasmodium berghei [11]): 99%; MSD (Plasmodium berghei [15]): 9 days
N=C(CC(O)c1cc2ccccc2c2ccccc12)NCc1ccc(F)cc1 (centres undefined)	9	0.98	20	9.2	–
CCN(CC)CCCC(C)Nc1ccnc2cc(Cl)ccc12 (centres undefined) [CHLOROQUINE]	–	–	–	–	Activity (Plasmodium berghei [11]): 99.9%; IC50 at 24 h [5]: > 1000 µM; IC50 at 24 h [6]: > 1000 µM; inhibition (Plasmodium falciparum [16]): Active; MSD (Plasmodium berghei [15]): 21 days; inhibition (Plasmodium falciparum [17]): Active
N/C(CC(O)c1cc2ccccc2c2ccccc12)=N\CCc1ccccn1 (centres undefined)	3	15	22.8	50.5	–
